The target of assay [1] is T1, hNav1.7 (Homo sapiens (Human), UniProt Q15858). Briefly: Tritiated aryl sulfonamide binding to membranes from cells expressing hNav1.7 and the β1 subunit (competitive binding). Particulars: membranes with hNav1.7 and β1 subunit; [3H]compound displacement, 18 h, room temperature; read-out: NaV1.7 395 Memb Binding (IC50). In a few lines:
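Competitive displacement of 100 μM [3H]-labelled tritiated aryl sulfonamide from hNav1.7/β1 membranes, 18 h at room temperature in 100 mM NaCl, 20 mM Tris HCl pH 7.4. Non-specific binding defined with 1 μM unlabelled compound. Filter-bound radioactivity measured by liquid scintillation counting.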

Assay [2] has as its target T1, hNav1.7. Briefly: Patch voltage clamp electrophysiology (PatchXpress), HEK-293 cells, inactivated state block. Format: cell-based. The conditions noted are these: HEK-293 cells, β1 coexpressed; inactivated state, holding −60 mV; read-out: EP_PX 293 hNav1.7 (IC50).

T1 sequence (Q15858 whole entry, looked up): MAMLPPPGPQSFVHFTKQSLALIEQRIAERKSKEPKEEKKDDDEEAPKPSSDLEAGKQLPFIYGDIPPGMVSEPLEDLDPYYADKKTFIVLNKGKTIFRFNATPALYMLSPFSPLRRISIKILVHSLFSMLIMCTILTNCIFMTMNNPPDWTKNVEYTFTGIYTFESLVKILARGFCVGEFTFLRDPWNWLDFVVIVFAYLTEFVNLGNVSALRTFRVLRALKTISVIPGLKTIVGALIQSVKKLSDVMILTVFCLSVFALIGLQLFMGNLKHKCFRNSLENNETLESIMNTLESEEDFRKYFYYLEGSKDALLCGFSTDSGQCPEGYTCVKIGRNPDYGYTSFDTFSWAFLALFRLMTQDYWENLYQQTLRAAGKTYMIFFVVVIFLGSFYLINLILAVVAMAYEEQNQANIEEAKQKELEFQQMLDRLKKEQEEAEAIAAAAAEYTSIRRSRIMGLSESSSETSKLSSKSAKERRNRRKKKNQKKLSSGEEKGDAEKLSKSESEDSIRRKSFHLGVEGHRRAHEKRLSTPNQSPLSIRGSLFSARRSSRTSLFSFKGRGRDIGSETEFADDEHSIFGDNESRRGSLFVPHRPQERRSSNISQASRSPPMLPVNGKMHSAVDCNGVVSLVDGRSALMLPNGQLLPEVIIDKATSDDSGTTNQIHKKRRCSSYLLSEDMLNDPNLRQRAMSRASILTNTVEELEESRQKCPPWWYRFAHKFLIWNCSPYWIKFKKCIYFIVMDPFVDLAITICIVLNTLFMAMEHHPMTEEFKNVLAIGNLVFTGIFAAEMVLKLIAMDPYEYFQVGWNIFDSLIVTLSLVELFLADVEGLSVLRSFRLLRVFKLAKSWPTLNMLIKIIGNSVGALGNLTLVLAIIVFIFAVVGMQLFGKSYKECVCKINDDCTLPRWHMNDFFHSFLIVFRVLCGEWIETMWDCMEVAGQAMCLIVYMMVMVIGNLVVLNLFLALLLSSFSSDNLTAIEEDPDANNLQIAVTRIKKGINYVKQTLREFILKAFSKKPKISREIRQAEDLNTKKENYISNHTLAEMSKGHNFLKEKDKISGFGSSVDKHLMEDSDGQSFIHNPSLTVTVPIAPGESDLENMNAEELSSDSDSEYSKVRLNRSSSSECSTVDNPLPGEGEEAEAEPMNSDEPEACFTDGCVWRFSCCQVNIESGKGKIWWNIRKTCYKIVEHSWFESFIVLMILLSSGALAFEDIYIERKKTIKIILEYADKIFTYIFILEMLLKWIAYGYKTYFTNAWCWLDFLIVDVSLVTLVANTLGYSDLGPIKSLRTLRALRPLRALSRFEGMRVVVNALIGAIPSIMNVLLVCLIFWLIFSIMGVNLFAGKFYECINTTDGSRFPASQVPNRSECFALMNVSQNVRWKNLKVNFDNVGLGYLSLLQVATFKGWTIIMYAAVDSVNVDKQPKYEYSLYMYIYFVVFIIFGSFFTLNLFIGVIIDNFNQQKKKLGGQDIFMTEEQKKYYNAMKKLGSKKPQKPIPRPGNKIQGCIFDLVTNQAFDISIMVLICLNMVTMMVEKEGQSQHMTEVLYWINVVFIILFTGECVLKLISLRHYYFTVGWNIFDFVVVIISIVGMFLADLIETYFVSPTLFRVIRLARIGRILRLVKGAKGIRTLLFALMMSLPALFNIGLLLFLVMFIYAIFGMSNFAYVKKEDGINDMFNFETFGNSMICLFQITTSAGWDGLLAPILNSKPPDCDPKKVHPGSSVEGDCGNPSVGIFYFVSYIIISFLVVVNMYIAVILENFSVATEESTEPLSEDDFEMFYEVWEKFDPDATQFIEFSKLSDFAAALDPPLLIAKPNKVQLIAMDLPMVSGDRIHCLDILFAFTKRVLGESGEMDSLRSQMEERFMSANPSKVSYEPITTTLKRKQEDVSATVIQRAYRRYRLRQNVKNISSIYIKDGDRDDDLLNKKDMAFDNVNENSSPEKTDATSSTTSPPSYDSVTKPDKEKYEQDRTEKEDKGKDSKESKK
T1 sequence (Q07699 whole entry partner, looked up): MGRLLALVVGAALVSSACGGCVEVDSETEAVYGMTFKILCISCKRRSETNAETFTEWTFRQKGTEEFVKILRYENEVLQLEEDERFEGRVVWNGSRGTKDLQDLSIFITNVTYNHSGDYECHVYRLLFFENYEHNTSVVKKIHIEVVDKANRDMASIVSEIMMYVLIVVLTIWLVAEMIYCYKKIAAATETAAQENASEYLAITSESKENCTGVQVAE

Regarding `O=C(NS(=O)(=O)N1CCC1)c1cc(C2CC2)c(OCC2CN(C(c3ccccc3)c3ccccc3)C2)cc1F` (racemic), the half-maximal inhibitory concentration (IC50) on hNav1.7 [1] is 12 nM; at hNav1.7 [2], 350 nM.
In the case of `CC1(COc2cc(F)c(C(=O)NS(C)(=O)=O)cc2C2CC2)CCC(C(F)(F)F)CC1` (stereo not shown), the IC50 amounted to 4 nM on hNav1.7 [1] and 59 nM on hNav1.7 [2].
The like results for “5-chloro-4-(cyclohexylmethoxy)-2-fluoro-N-(methylsulfonyl)benzamide [Example 21]” were, in that order, 1060 nM and 107 nM.
The like results for `O=C(NS(=O)(=O)N1CCC1)c1cc(C2CC2)c(OCC2CCCC(F)(F)C2)cc1F` (stereo not shown) [Example 404] were, in that order, 23 nM and 57 nM.
The like results for `O=C(NS(=O)(=O)N1CCC1)c1cc(C2CC2)c(OCCC2CCC(F)(F)CC2)cc1F` were, in that order, 230 nM and 80 nM.
For `CS(=O)(=O)NC(=O)c1cc(C2CC2)c(OCC23CCCCC2C3(F)F)cc1F` (stereo not shown) [Example 310], the results for the concentration for half-maximal inhibition (IC50) at hNav1.7 [1] and on hNav1.7 [2] were 84 nM and 10 nM, respectively.
`O=C(NS(=O)(=O)N1CC(F)C1)c1cc(C2CC2)c(OCC2CCC3CC3C2)cc1F` (stereo not shown): the IC50 at hNav1.7 [1] turned out to be 11 nM; at hNav1.7 [2] it was 520 nM.
Consider `O=C(NS(=O)(=O)N1CCC1)c1cc(Cl)c(OCC23CC4CC(CC(C4)C2)C3)c(F)c1F`, for which the IC50 amounted to 370 nM on hNav1.7 [1] and 2300 nM on hNav1.7 [2].
The like results for `O=C(NS(=O)(=O)N1CCC1)c1cc(Cl)c(OC2CCC(F)(F)CC2)cc1F` were, in that order, 980 nM and 4400 nM.
The like results for `O=C(NS(=O)(=O)C1CC1)c1cc(C2CC2)c(O[C@@H]2C[C@@H]3CC[C@H]2C3)cc1F` were, in that order, 14 nM and 41 nM.
The like results for `CO[C@@H]1CCN(S(=O)(=O)NC(=O)c2cc(C3CC3)c(OCC34CC5CC(CC(C5)C3)C4)cc2F)C1` [Example 301] were, in that order, 14 nM and 360 nM.
As to `CC1(F)CCC(COc2cc(F)c(C(=O)NS(=O)(=O)N3CCC3)cc2Cl)CC1` (stereo not shown) [Example 331], the IC50 at hNav1.7 [1] came to 450 nM; at hNav1.7 [2], 710 nM.
The like results for `CC1(F)CCC(COc2cc(F)c(C(=O)NS(=O)(=O)N3CCC3)cc2C2CC2)CC1` (stereo not shown) were, in that order, 23 nM and 67 nM.
Regarding `CCS(=O)(=O)NC(=O)c1cc(C2CC2)c(OCC2CCC3(CC2)CC3)cc1F`, the results for the half-inhibitory concentration (IC50) on hNav1.7 [1] and on hNav1.7 [2] were 3 nM and 23 nM, respectively.
In the case of `CN(C)S(=O)(=O)NC(=O)c1cc(Cl)c(OCC23CC4CC(CC(Cl)(C4)C2)C3)cc1F`, the half-inhibitory concentration (IC50) on hNav1.7 [1] turned out to be 160 nM; on hNav1.7 [2] it was 85.4 nM.
On to `CO[C@]12CC3CC(C1)[C@@H](Oc1cc(F)c(C(=O)NS(=O)(=O)N4CCC4)cc1C1CC1)C(C3)C2`, for which the IC50 at hNav1.7 [1] amounted to 100 nM; at hNav1.7 [2] it was 190 nM.
On to `CS(=O)(=O)NC(=O)c1cc(C2CC2)c(O[C@H]2C3CC4CC2C[C@@](Cl)(C4)C3)cc1F`, for which the IC50 at hNav1.7 [1] worked out at 9 nM; on hNav1.7 [2], 7 nM.
The like results for `CC1(C)CCCC(Oc2cc(F)c(C(=O)NS(=O)(=O)C3CC3)cc2C2CC2)C1` (stereo not shown) were, in that order, 6 nM and 53 nM.
With `O=C(NS(=O)(=O)N1CCC1)c1cc(C2CC2)c(OCC2CC23CCCCC3)cc1F` (stereo not shown) [Example 347], the results for the 50% inhibitory concentration (IC50) at hNav1.7 [1] and at hNav1.7 [2] were 14 nM and 67 nM, respectively.
The like results for `O=C(NS(=O)(=O)N1CCC1)c1cc(C2CC2)c(OCC2CCC3C(C2)C3(F)F)cc1F` (stereo not shown) were, in that order, 15 nM and 34 nM.
The like results for `CC1(F)CCC(COc2cc(F)c(C(=O)NS(=O)(=O)N3CCC3)cc2Cl)CC1` (stereo not shown) were, in that order, 270 nM and 280 nM.
The like results for `CC1(COc2cc(F)c(C(=O)NS(=O)(=O)C3CC3)cc2C2CC2)CC=CCC1` (stereo not shown) were, in that order, 5 nM and 12 nM.
Take `CS(=O)(=O)NC(=O)c1cc(C2CC2)c(O[C@H]2C3CC4CC2C[C@](F)(C4)C3)cc1F` [Example 308]: the half-maximal inhibitory concentration (IC50) stood at 20 nM at hNav1.7 [1] and 180 nM at hNav1.7 [2].
The like results for `O=C(NS(=O)(=O)C1CC1)c1cc(C2CC2)c(OCC23CCCCC2C3(F)F)cc1F` (stereo not shown) [Example 430, 5-cyclopropyl-N-cyclopropylsulfonyl-4-[(7,7-difluoronorcaran-1-yl)methoxy]-2-fluoro-benzamide] were, in that order, 3 nM and 10 nM.
The like results for `CNS(=O)(=O)NC(=O)c1cc(C2CC2)c(OCC2CCCC(F)(F)C2)cc1F` (stereo not shown) were, in that order, 66 nM and 930 nM.
The like results for `O=C(NS(=O)(=O)N1CCC1)c1cc(C2CC2)c(OCC2(C(F)(F)F)CCC2)cc1F` [Example 329] were, in that order, 4 nM and 20 nM.
On to `O=C(NS(=O)(=O)N1CCC1)c1cc(C2CC2)c(OCC23CCCCC2C3(F)F)cc1F` (stereo not shown) [Example 431, N-(azetidin-1-ylsulfonyl)-5-cyclopropyl-4-[(7,7-difluoronorcaran-1-yl)methoxy]-2-fluoro-benzamide], for which the IC50 at hNav1.7 [1] was determined as 13 nM; at hNav1.7 [2], 10 nM.
The like results for `CS(=O)(=O)NC(=O)c1cc(Cl)c(OCC23CC4CC(CC(O)(C4)C2)C3)cc1F` were, in that order, 10000 nM and 2250 nM.
The like results for `O=C(NS(=O)(=O)C1CC1)c1cc(C2CC2(F)F)c(OCC23CC4CC(CC(C4)C2)C3)cc1F` (stereo not shown) were, in that order, 4 nM and 140 nM.
In the case of `CS(=O)(=O)NC(=O)c1ccc(OC[C@H]2CC[C@H](C(F)(F)F)CC2)cc1F`, the IC50 on hNav1.7 [1] was found to be 1500 nM; at hNav1.7 [2] it was 1000 nM.
For `CO[C@H]1CCN(S(=O)(=O)NC(=O)c2cc(C3CC3)c(OCC34CC5CC(CC(C5)C3)C4)cc2F)C1`, the values for the concentration for half-maximal inhibition (IC50) at hNav1.7 [1] and on hNav1.7 [2] were 29 nM and 300 nM, respectively.
The like results for `CC(Oc1cc(F)c(C(=O)NS(C)(=O)=O)cc1Cl)C12CC3CC(CC(C3)C1)C2` (stereo not shown) [Example 31] were, in that order, 1400 nM and 146 nM.
On to `O=C(NS(=O)(=O)N1CCC1)c1cc(C2CC2)c(O[C@H]2C3CC4CC2C[C@](F)(C4)C3)cc1F`, for which the results for the IC50 on hNav1.7 [1] and at hNav1.7 [2] were 20 nM and 100 nM, respectively.
The like results for `CC1CCCCC1COc1cc(F)c(C(=O)NS(=O)(=O)N2CCC2)cc1C1CC1` (stereo not shown) [Example 372] were, in that order, 7 nM and 11 nM.
The like results for `CS(=O)(=O)NC(=O)c1cc(C2CC2)c(O[C@@H]2C[C@@H]3CC[C@H]2C3)cc1F` were, in that order, 45 nM and 230 nM.
As to `CS(=O)(=O)NC(=O)c1cc(Cl)c(OCC2CC=CCC2)cc1F` (stereo not shown), the 50% inhibitory concentration (IC50) came out at 130 nM at hNav1.7 [1] and 1300 nM at hNav1.7 [2].
The like results for `CS(=O)(=O)NC(=O)c1cc(C2CC2)c(OC2CCC3(CC2)CC3)cc1F` were, in that order, 21 nM and 18 nM.
The like results for `O=C(NS(=O)(=O)N1CCC1)c1cc(C2CC2)c(OCC2CCC3CC3C2)cc1F` (stereo not shown) [Example 432, N-(azetidin-1-ylsulfonyl)-5-cyclopropyl-2-fluoro-4-(norcaran-3-ylmethoxy)benzamide] were, in that order, 22 nM and 32 nM.
As to `CC1(COc2cc(F)c(C(=O)NS(=O)(=O)N3CCC3)cc2C2CC2)CCC2(CC1)CC2(F)F` (stereo not shown), the IC50 is 11 nM on hNav1.7 [1] and 47 nM on hNav1.7 [2].
The like results for `CC1(C)[C@@H]2CC[C@@]1(C)[C@@H](Oc1cc(F)c(C(=O)NS(C)(=O)=O)cc1Cl)C2` [Example 25] were, in that order, 220 nM and 27 nM.
The like results for `O=C(NS(=O)(=O)N1CCC1)c1cc(C2CC2)c(O[C@H]2C3CC4CC2C[C@@](F)(C4)C3)cc1F` were, in that order, 21 nM and 24 nM.
The like results for `[2H]C1([2H])C([2H])([2H])C([2H])([2H])C([2H])(COc2cc(F)c(C(=O)NS(=O)(=O)N3CCC3)cc2Cl)C([2H])([2H])C1([2H])[2H]` were, in that order, 160 nM and 310 nM.
With `CS(=O)(=O)NC(=O)c1cc(C2CC2)c(OCC2CCCC(F)(F)C2)cc1F` (stereo not shown), the figures for the IC50 at hNav1.7 [1] and at hNav1.7 [2] were 27 nM and 420 nM, respectively.
The like results for `O=C(NS(=O)(=O)N1CCC1)c1cc(Cl)c(OCC2CCC3(CCC3)CC2)cc1F` were, in that order, 25 nM and 77 nM.
Consider `O=C(NS(=O)(=O)N1CCC1)c1cc(C2CC2)c(OCC2CCC(C(F)(F)F)CC2)cc1F` (stereo not shown) [Example 429, N-(azetidin-1-ylsulfonyl)-5-cyclopropyl-2-fluoro-4-[[4-(trifluoromethyl)cyclohexyl]methoxy]benzamide], for which the IC50 amounted to 8 nM on hNav1.7 [1] and 100 nM at hNav1.7 [2].
The like results for `O=C(NS(=O)(=O)N1CCC1)c1cc(C2CC2)c(OCC2CCCC(F)(F)C2)cc1F` (stereo not shown) were, in that order, 22 nM and 43 nM.
With `O=C(NS(=O)(=O)N1CCC1)c1cc(C2CC2)c(OCC2CCC3(CCC3)CC2)cc1F`, the IC50 at hNav1.7 [1] stood at 4 nM; at hNav1.7 [2], 300 nM.
Turning to `CNS(=O)(=O)NC(=O)c1cc(C2CC2)c(OCC2CN(C(c3ccccc3)c3ccccc3)C2)cc1F`, the figures for the concentration for half-maximal inhibition (IC50) on hNav1.7 [1] and on hNav1.7 [2] were 34 nM and 600 nM, respectively.
With `O=C(NS(=O)(=O)C1CC1)c1cc(C2CC2)c(OC2CCC3(CCCCC3)CC2)cc1F`, the IC50 on hNav1.7 [1] was found to be 4 nM; at hNav1.7 [2], 61 nM.
The like results for `O=C(NS(=O)(=O)N1CCC1)c1cc(C2CC2)c(OC2C3CC4CC(C3)CC2C4)cc1F` (stereo not shown) were, in that order, 10 nM and 56 nM.
As to `CC12CC3CC(C)(C1)CC(COc1cc(F)c(C(=O)NS(C)(=O)=O)cc1Cl)(C3)C2` [Example 23], the values for the IC50 on hNav1.7 [1] and on hNav1.7 [2] were 13 nM and 22.9 nM, respectively.
As to `O=C(NS(=O)(=O)N1CC(F)C1)c1cc(C2CC2)c(O[C@H]2C3CC4CC2C[C@@](Cl)(C4)C3)cc1F`, the values for the IC50 on hNav1.7 [1] and on hNav1.7 [2] were 28 nM and 890 nM, respectively.
Regarding `CS(=O)(=O)NC(=O)c1cc(F)c(OCC23CC4CC(CC(C4)C2)C3)c(Cl)c1` [Example 325], the IC50 at hNav1.7 [1] amounted to 270 nM; on hNav1.7 [2], 2500 nM.

Broadly, the IC50 is the concentration needed to halve the response being measured.
